Test results as given in patent publication US8623908B2, “Use of tellurium compounds for inhibition of interleukin-converting enzyme” (Biomas Ltd., priority 2004, dated 2014).
Where two headings read alike, the source gives them in different places.

Tests used:
IL-1β = IL-1β levels in LPS-induced septic mice; format: in vivo, c57BL/6J mice; settings: 24 hours after LPS, FIG. 7b
Protocol: For serum cytokine evaluation, PBS or AS101 was injected intraperitoneally (i.p.) 2 hours following LPS treatment. For survival experiments AS101 was injected i.p. daily at various concentrations starting 1 hour and up to 24 hours following LPS until the end of the experiment.
(§1) The R&D Systems (Minneapolis, Minn.) IL-18 and IL-1β ELISA kits were used for the quantitative measurement of these cytokines either in supernatants or in mice sera.
PBS (control) and AS101 at various concentrations were injected into c57BL/6J mice 2 hours following induction of sepsis by LPS (0.5 mg/mouse) treatment. 24 hours after LPS injection, mice were sacrificed and evaluated for plasma concentration of these cytokines in order to determine whether AS101 can inhibit production of IL-18 and IL-1β in vivo.

metallo proteases = settings: Inorg. Chem. 37: 1704-1712, 1998; cited from earlier work
[1] = target: T1, caspase-1 (ICE-Interleukin-β-converting enzyme), rCaspase-1 (Homo sapiens, UniProt P29466); assay: Caspase-1 activity enzymatic assay with colorimetric substrate Ac-YVAD-pNA; format: biochemical; settings: AS101 2.5, 5, 10 μM; 1 hour, 30° C., 405 nm; FIG. 1
T1 construct: purchased Biomol International Industries L.P. Canada
T1 sequence (P29466 120-297 limits assumed): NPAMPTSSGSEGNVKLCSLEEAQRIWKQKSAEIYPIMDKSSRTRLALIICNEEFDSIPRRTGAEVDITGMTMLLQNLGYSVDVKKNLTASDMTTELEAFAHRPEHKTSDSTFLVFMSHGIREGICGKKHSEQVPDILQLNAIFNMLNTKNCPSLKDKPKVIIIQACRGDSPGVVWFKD
T1 sequence (P29466 317-404 limits assumed): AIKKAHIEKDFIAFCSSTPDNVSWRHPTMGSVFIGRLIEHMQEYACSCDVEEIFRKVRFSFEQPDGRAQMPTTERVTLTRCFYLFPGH
Protocol: DTT, which is present in the commercial enzyme solution, interacts with AS101 and thus would interfere with the inhibition studies. Therefore removal of DTT from the enzyme solution prior to the enzymatic assay was necessary. Gel permeation chromatography was carried out at 4° C. 50 μl solution of commercial activated rCaspase-1 was loaded on a 1×15 cm Sephadex G-15 column (Pharmacia), preequilibrated with assay buffer containing: 50 mM Hepes, 100 mM NaCl, 0.1% CHAPS, 1 mM EDTA, 10% Glycerol at pH 7.4. The enzyme was eluted with the same buffer (degassed) at 0.5 ml/minute and 500 μl fractions were collected. The enzyme-substrate reaction was measured continuously with 1 min. intervals for a total time of 1 hour at 30° C. and was read at 405 nm. The total volume of the reaction was 100 μl and contained as following: 50 μl rCaspase-1 (0.8 U/μl), 25 μl colorimetric substrate (Ac-YVAD-pNA, 200 μM), 25 μl of AS101 at various concentrations (2.5 μM, 5 μM, 10 μM) in assay buffer.
AS101 was tested for its possible inhibitory activity towards a member of the cysteine protease family, caspase-1 (ICE-Interleukin-β-converting enzyme). The enzymatic reaction was carried out with caspase-1 specific colorimetric substrate, Ac-YVAD-pNA, and in the absence or the presence of AS101 at different concentrations. The enzyme activity was tested for 1 hour and measured at 405 nm. […]

serine proteases = settings: Inorg. Chem. 37: 1704-1712, 1998; cited from earlier work
PBMC = assay: Viability of treated cells by trypan blue exclusion; format: cell-based, human; settings: cells treated with various concentrations of AS101, SAC, 24 hours
Protocol: (§2) Cells were first treated with various concentrations of AS101 and after 1 hour SAC was added. After 24 hours, supernatants were collected and evaluated for cytokine content. Viability at the end of these experiments, as assessed by tryptan blue exclusion method, was always found to be >95%.

[2] = test system: IL-18 secretion by human PBMC; assay: SAC-induced secretion of IL-18 by PBMC (ELISA); format: cell-based
Protocol: Human peripheral blood mononuclear cells (PBMC) were isolated from randomly selected healthy donors by Ficoll-Hypaque (Pharmacia, Piscataway, N.J.) density-gradient centrifugation. PBMC were adjusted to 2.5×10^6 cells/ml and cultured in enriched RPMI 1640 medium (Biological industries, Kibbutz Beit Haemek, Israel) with 10% FCS (Biological industries) at 37° C. and 7% CO2.
as §2, §1
PBMC (2.5×10^6 cells/ml) were treated with various concentrations of AS101 and after 1 hour were stimulated with SAC (10^−3 V/V). Results represent means±SE of three experiments **p<0.05 decrease vs SAC; *p<0.01 decrease vs SAC. Optimal concentration of SAC for cytokine secretion stimulation was 10^−3 v/v (data not shown).

[3] = test system: human HaCat keratinocytes; assay: IL-18 production in HaCat keratinocytes after AS101 treatment alone; format: cell-based
Protocol: IL-18 production has a self-regulating negative feedback loop. This cytokine can down regulate its own production by inducing the production of a native inhibitor, IL-18BP, through an IFN-γ dependent mechanism. Since AS101 has been previously shown to increase IFN-γ due to the direct inhibition of the […], studies were carried out to determine whether the inhibitory effect of AS101 results from induction of IL-18BP directly and/or whether neutralization of IFN-γ would abrogate the inhibitory effect of AS101 on IL-18.

aspartic proteases = settings: Inorg. Chem. 37: 1704-1712, 1998; cited from earlier work
[4] = test system: IL-18 secretion by human PBMC; assay: Role of nitric oxide: IL-18 inhibition in PBMC with L-NAME; format: cell-based; settings: L-NAME 20 nM 2 hours before AS101 0.5 μg/ml; SAC; 24 hours; FIG. 5
Protocol: as §1
L-NAME/D-NAME (20 nM) were delivered to PBMC (2.5×10^6 cells/ml)2 hours before AS101 (0.5 μg/ml). SAC (10^−3 v/v) was added 1 hour following AS101. Supernatants were collected after 24 hours and evaluated for IL-18 levels.

cysteine proteases = settings: via a catalytic thiol oxidation; Inorg. Chem. 37: 1704-1712, 1998; cited from earlier work
[5] = rats, cited from earlier work

Cl[TeH]1(Cl)(Cl)OCCO1 [AS101, ammonium trichloro(dioxyethylene-O,O′)tellurate]
IL-1β level in septic mice (IL-1β; AS101 5 μg/mouse i.p. 2 hours after LPS 0.5 mg/mouse): significantly inhibited
IL-1β level in septic mice (IL-1β; AS101 10 μg/mouse i.p. 2 hours after LPS 0.5 mg/mouse): significantly inhibited
inhibition of metallo proteases (metallo proteases): no inhibition
effect on ICE activity (percent residual enzymatic activity) [1]: inhibits ICE activity directly, in a concentration-dependant manner
inhibition of serine proteases (serine proteases): no inhibition
viability at the end of the experiments (PBMC): > 95%
SAC-induced secretion levels of IL-18 ([2]; AS101 1 hour before SAC 10^-3 v/v, after 24 hours, FIG. 2a): decrease SAC-induced secretion levels
concentration from which the decrease in IL-18 secretion is significant (p<0.05) ([2]; SAC, 24 hours): ≥ 0.5 µg/mL
induction of IL-18 production by AS101 treatment [3]: not able to induce IL-18 production
inhibition of aspartic proteases (aspartic proteases): no inhibition
inhibitory effect on IL-18 secretion in the presence of NOS inhibitor L-NAME [4]: not diminished
inhibition of cysteine proteases (cysteine proteases): inhibits cysteine proteases
LD50 relative to the immunologically effective dose ([5]; intramuscular administration): 500-1000 folds
LD50 relative to the immunologically effective dose ([5]; intravenous administration): 500-1000 folds
